We go through 5 molecules from publication PMC10003956, “To the Understanding of Catalysis by D-Amino Acid Transaminases: A Case Study of the Enzyme from Aminobacterium colombiense” (Molecules, 2023).

For test [1], the target named is T1, AmicoTA (Aminobacterium colombiense, UniProt D5EHC5).
T1 construct: gene Amico_1844; N-terminal His6-TEV tag kept for kinetics, cut for crystals; E. coli Rosetta (DE3) pLysS
In words: half-reaction of PLP form, absorbance at […] nm. It counts as binding.

Test [2] has as its target T1, AmicoTA. In words: X-ray crystal structure, […] Å. The class given is binding. To be noted: covalent, Schiff base with K142; tag-free protein.

T1 sequence (D5EHC5 entry or part of it): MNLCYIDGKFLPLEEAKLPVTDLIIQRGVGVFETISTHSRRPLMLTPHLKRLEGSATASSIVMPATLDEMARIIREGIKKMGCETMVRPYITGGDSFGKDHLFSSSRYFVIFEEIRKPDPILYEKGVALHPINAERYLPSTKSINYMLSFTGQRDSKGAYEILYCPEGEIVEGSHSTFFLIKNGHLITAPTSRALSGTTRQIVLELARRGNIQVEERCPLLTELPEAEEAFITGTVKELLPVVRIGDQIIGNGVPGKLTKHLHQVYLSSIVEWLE

As for `C[C@@H](N)C(=O)O` [D-alanine], in test [1], binding was put at a Kd of 50 ± 6 mM.
Regarding `N[C@H](Cc1ccccc1)C(=O)O` [D-phenylalanine], the Kd – broadly, the constant that tells how readily two partners part at equilibrium – in test [1] turned out to be 19 ± 3 mM.
Same read-out and setting: as for `CC(C)C[C@@H](N)C(=O)O` [D-leucine], the figure is 100 ± 10 mM.
Take `Cc1ncc(COP(=O)(O)O)c(C=O)c1O` [PLP]: the “X-ray crystal structure, 1.9 Å” value in test [2] was “bound via Schiff base linkage with K142”.
On to `N[C@H](CCC(=O)O)C(=O)O` [D-glutamate], for which, in test [1], the Kd was found to be 2.1 ± 0.2 mM.
